Experiments:
Experiment in all cases: relative viability (nuclei count vs DMSO), 5 days (fraction); higher = more cells survive
NCI-H1437 = test system: NCI-H1437
In short: (§1)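 Relative viability was taken as the ratio of nuclei in treated wells to nuclei in vehicle wells. Lung cancer cell lines in 1536-well plates received compounds by pin tool one day after seeding, either one drug alone or a fixed anchor-drug dose plus five library-drug doses (not always all listed) in √10 steps. Nuclei were counted on 4× images after 5 days of treatment, and values are medians of duplicate plates.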

LXF-289 = test system: LXF-289
In short: as §1

PC-14 = test system: PC-14
In short: as §1

HCC-44 = test system: HCC-44
In short: as §1

H3255 = test system: H3255
In short: as §1

HCC-366 = test system: HCC-366
In short: as §1

UMC-11 = test system: UMC-11
In short: as §1

NCI-H441 = test system: NCI-H441
In short: as §1

A-427 = test system: A-427
In short: as §1

NCI-H2347 = test system: NCI-H2347
In short: as §1

NCI-H460 = test system: NCI-H460
In short: as §1

NCI-H1755 = test system: NCI-H1755
In short: as §1

NCI-H3122 = test system: NCI-H3122
In short: as §1

NCI-H2405 = test system: NCI-H2405
In short: as §1

NCI-H2009 = test system: NCI-H2009
In short: as §1

NCI-H596 = test system: NCI-H596
In short: as §1

LCLC-103H = test system: LCLC-103H
In short: as §1

NCI-H2023 = test system: NCI-H2023
In short: as §1

NCI-H23 = test system: NCI-H23
In short: as §1

ABC-1 = test system: ABC-1
In short: as §1

NCI-H647 = test system: NCI-H647
In short: as §1

PC-3 [JPC-3] = test system: PC-3 [JPC-3]
In short: as §1

## COCC1(CO)C(=O)C2CCN1CC2 (stereo not drawn) [PRIMA-1MET] + C[C@@H](Oc1cc(-c2cnn(C3CCNCC3)c2)cnc1N)c1c(Cl)ccc(F)c1Cl [Crizotinib] (partner 1 µM)
NCI-H1437; first compound 0.2 µM
  relative viability: 1.07
NCI-H1437; first compound 0.6325 µM
  relative viability: 0.896
NCI-H1437; first compound 2 µM
  relative viability: 0.9
NCI-H1437; first compound 6.325 µM
  relative viability: 0.991
NCI-H1437; first compound 20 µM
  relative viability: 0.862
LXF-289; first compound 0.2 µM
  relative viability: 0.81
LXF-289; first compound 0.6325 µM
  relative viability: 0.869
LXF-289; first compound 2 µM
  relative viability: 0.871
LXF-289; first compound 6.325 µM
  relative viability: 0.815
LXF-289; first compound 20 µM
  relative viability: 0.767
PC-14; first compound 0.2 µM
  relative viability: 1.06
PC-14; first compound 0.6325 µM
  relative viability: 0.852
PC-14; first compound 2 µM
  relative viability: 0.853
PC-14; first compound 6.325 µM
  relative viability: 0.975
PC-14; first compound 20 µM
  relative viability: 1
HCC-44; first compound 0.2 µM
  relative viability: 0.83
HCC-44; first compound 0.6325 µM
  relative viability: 0.67
HCC-44; first compound 2 µM
  relative viability: 0.867
HCC-44; first compound 6.325 µM
  relative viability: 0.86
HCC-44; first compound 20 µM
  relative viability: 0.807
H3255; first compound 0.2 µM
  relative viability: 0.898
H3255; first compound 0.6325 µM
  relative viability: 0.682
H3255; first compound 2 µM
  relative viability: 0.77
H3255; first compound 6.325 µM
  relative viability: 0.991
H3255; first compound 20 µM
  relative viability: 0.898
HCC-366; first compound 0.2 µM
  relative viability: 0.702
HCC-366; first compound 0.6325 µM
  relative viability: 0.515
HCC-366; first compound 6.325 µM
  relative viability: 0.506
HCC-366; first compound 20 µM
  relative viability: 0.009
UMC-11; first compound 0.2 µM
  relative viability: 0.536
UMC-11; first compound 0.6325 µM
  relative viability: 0.643
UMC-11; first compound 2 µM
  relative viability: 0.607
UMC-11; first compound 6.325 µM
  relative viability: 0.726
UMC-11; first compound 20 µM
  relative viability: 0.586
NCI-H441; first compound 0.2 µM
  relative viability: 0.934
NCI-H441; first compound 0.6325 µM
  relative viability: 0.78
NCI-H441; first compound 2 µM
  relative viability: 0.646
NCI-H441; first compound 6.325 µM
  relative viability: 0.663
NCI-H441; first compound 20 µM
  relative viability: 0.362
A-427; first compound 0.2 µM
  relative viability: 0.935
A-427; first compound 0.6325 µM
  relative viability: 0.721
A-427; first compound 2 µM
  relative viability: 0.769
A-427; first compound 6.325 µM
  relative viability: 0.959
A-427; first compound 20 µM
  relative viability: 0.822
NCI-H2347; first compound 0.2 µM
  relative viability: 0.705
NCI-H2347; first compound 0.6325 µM
  relative viability: 0.667
NCI-H2347; first compound 2 µM
  relative viability: 0.295
NCI-H2347; first compound 6.325 µM
  relative viability: 0.771
NCI-H2347; first compound 20 µM
  relative viability: 0.682
NCI-H460; first compound 0.2 µM
  relative viability: 1.45
NCI-H460; first compound 0.6325 µM
  relative viability: 0.579
NCI-H460; first compound 2 µM
  relative viability: 0.898
NCI-H460; first compound 6.325 µM
  relative viability: 0.0132
NCI-H460; first compound 20 µM
  relative viability: 0.0052
NCI-H1755; first compound 0.2 µM
  relative viability: 0.996
NCI-H1755; first compound 0.6325 µM
  relative viability: 0.825
NCI-H1755; first compound 2 µM
  relative viability: 0.826
NCI-H1755; first compound 6.325 µM
  relative viability: 0.915
NCI-H1755; first compound 20 µM
  relative viability: 0.81
NCI-H3122; first compound 0.2 µM
  relative viability: 0.317
NCI-H3122; first compound 0.6325 µM
  relative viability: 0.25
NCI-H3122; first compound 2 µM
  relative viability: 0.259
NCI-H3122; first compound 6.325 µM
  relative viability: 0.286
NCI-H3122; first compound 20 µM
  relative viability: 0.284
NCI-H2405; first compound 0.2 µM
  relative viability: 0.679
NCI-H2405; first compound 0.6325 µM
  relative viability: 0.847
NCI-H2405; first compound 6.325 µM
  relative viability: 0.818
NCI-H2405; first compound 20 µM
  relative viability: 0.452
NCI-H2009; first compound 0.2 µM
  relative viability: 0.99
NCI-H2009; first compound 0.6325 µM
  relative viability: 0.889
NCI-H2009; first compound 2 µM
  relative viability: 1.09
NCI-H2009; first compound 6.325 µM
  relative viability: 1.05
NCI-H2009; first compound 20 µM
  relative viability: 0.295
NCI-H596; first compound 0.2 µM
  relative viability: 1.08
NCI-H596; first compound 0.6325 µM
  relative viability: 0.962
NCI-H596; first compound 2 µM
  relative viability: 0.863
NCI-H596; first compound 6.325 µM
  relative viability: 1.04
NCI-H596; first compound 20 µM
  relative viability: 0.174
LCLC-103H; first compound 0.2 µM
  relative viability: 1.16
LCLC-103H; first compound 0.6325 µM
  relative viability: 1.05
LCLC-103H; first compound 2 µM
  relative viability: 0.894
LCLC-103H; first compound 6.325 µM
  relative viability: 1.11
LCLC-103H; first compound 20 µM
  relative viability: 1.06
NCI-H2023; first compound 0.2 µM
  relative viability: 0.764
NCI-H2023; first compound 0.6325 µM
  relative viability: 0.623
NCI-H2023; first compound 2 µM
  relative viability: 0.601
NCI-H2023; first compound 6.325 µM
  relative viability: 0.694
NCI-H2023; first compound 20 µM
  relative viability: 0.584
NCI-H23; first compound 0.2 µM
  relative viability: 0.599
NCI-H23; first compound 0.6325 µM
  relative viability: 0.471
NCI-H23; first compound 2 µM
  relative viability: 0.48
NCI-H23; first compound 6.325 µM
  relative viability: 0.406
NCI-H23; first compound 20 µM
  relative viability: 0.104
ABC-1; first compound 0.2 µM
  relative viability: 1.39
ABC-1; first compound 0.6325 µM
  relative viability: 1.22
ABC-1; first compound 2 µM
  relative viability: 0.945
ABC-1; first compound 6.325 µM
  relative viability: 0.908
ABC-1; first compound 20 µM
  relative viability: 0.555
NCI-H647; first compound 0.2 µM
  relative viability: 1
NCI-H647; first compound 0.6325 µM
  relative viability: 1.24
NCI-H647; first compound 2 µM
  relative viability: 1.09
NCI-H647; first compound 6.325 µM
  relative viability: 1.08
NCI-H647; first compound 20 µM
  relative viability: 0.896
PC-3 [JPC-3]; first compound 0.2 µM
  relative viability: 0.995
PC-3 [JPC-3]; first compound 0.6325 µM
  relative viability: 0.911
PC-3 [JPC-3]; first compound 2 µM
  relative viability: 0.966
PC-3 [JPC-3]; first compound 6.325 µM
  relative viability: 1.07
PC-3 [JPC-3]; first compound 20 µM
  relative viability: 0.951
